Laboratory results from patent publication US4000196A, “1,1,3-Trisubstituted hydroxyguanidines” (E. I. Du Pont de Nemours and Company, priority 1974, dated 1976).

Assays:
[1] = Chelation of metal ions in aqueous solutions; assay type: physicochemical
Procedure: (§1) The 1,1,3-trisubstituted hydroxyguanidines of the invention chelate metal ions in aqueous solutions, and the chelate complexes can then be extracted by a solvent such as 1-butanol. The following is an example.
(§2) Aqueous solutions of cobaltous chloride and cupric acetate were prepared by dissolving 0.5 g in separate 5 ml portions of water. One ml of each solution was mixed with 1 ml of an aqueous methanol solution of 1,3-dimethyl-1-benzyl-2-hydroxyguanidine made by dissolving 0.2 g of the hydroxyguanidine in 5 ml methanol and 5 ml water. The addition was followed by an immediate color change.

[2] = system: tetrabenazine-induced ptosis in mice; assay: Prevention of tetrabenazine-induced sedation and depression in mice (relief of ptosis); assay type: in vivo, Carworth CF1 S female mice; conditions: Mus musculus, 1 h; oral; 5, 25 and 125 mg/kg; tetrabenazine 32 mg/kg i.p. 30 min later; read 30 min after tetrabenazine; groups of 10 female mice; read-out: ptosis ED50, i.e., the dose which blocked ptosis in 50% of the mice
Procedure: This mouse test is predictive of human antidepressant response (Everett, G.M., "The Dopa Response Potentiation Test and Its Use In Screening for Antidepressant Drugs", pp. 164-167 in "Antidepressant Drugs", Proceeding of the First International Symposium, S. Garattini and M. N. G. Dukes, eds., 1967).
Groups of 10 Carworth CF1 S female mice, 18-21 g each, were fasted 1.5 hours and were intubated with a hydroxyguanidine as antagonist to tetrabenazine at oral doses of 5, 25 and 125 mg/kg in 0.20 ml of 1% methyl cellulose (Methocel). Thirty minutes later the mice were challenged with tetrabenazine, 32 mg/kg intraperitoneally (dissolved in 0.20 ml of 0.05M KCl at pH 2.0). One hour after the hydroxyguanidine compound (30 minutes after tetrabenazine) the mice were examined for signs of exploratory activity and ptosis (eye-lid closure). Normal exploratory activity (relief from sedation) was recorded when a mouse lifted by the tail from a group of 10 in a testing box and placed on a stainless steel testing box lid (12.5 inches × 8 inches with 0.33 inch mesh) either turned its head horizontally 30° or moved to the edge of the screen within 10 seconds after being placed on the screen. Relief from ptosis was recorded when exactly 2 seconds after placing the mouse facing the observer, lid closure was less than 50% in both eyes. […]

[3] = Chelation of copper ions (cupric acetate) in aqueous solution; assay type: physicochemical; conditions: cupric acetate in water mixed with aqueous methanol solution of hydroxyguanidine
Procedure: as §1, §2

[4] = Chelation of cobalt ions (cobaltous chloride) in aqueous solution; assay type: physicochemical; conditions: cobaltous chloride in water mixed with aqueous methanol solution of hydroxyguanidine
Procedure: as §1, §2

[5] = Complex formation with titanium (tetraisopropyl titanate); assay type: physicochemical; conditions: methanol solution of tetraisopropyl titanate

In the case of `CNC(=NO)N(C)c1ccccc1` [Example 2, 1-Phenyl-1,3-dimethyl-2-hydroxyguanidine], the “chelating of metal ions” value ([1]; aqueous solutions) is reported as “Chelating also occured”.
`CCNC(=NO)N(C)c1ccccc1` [Example 3, 1-Phenyl-1-methyl-3-ethyl-2-hydroxyguanidine] gave an ED50 [2] of 2.7 mg/kg.
In the case of `CNC(=NO)N(C)Cc1ccccc1` [Example 4, 1-Benzyl-1,3-dimethyl-2-hydroxyguanidine], the “immediate color change of copper solution” value [3] is reported as “from blue to green”, the “extraction of the metal ion from water into 1-butanol” value ([1]; cobalt and copper solutions shaken with 2-3 ml of 1-butanol) is reported as “colored organic layers, indicative of extraction of the metal ion from the water” and the “immediate color change of cobalt solution” value [4] is reported as “from red to pink”. The “complex of titanium with the hydroxyguanidine” value [5] was “a bright yellow complex of titanium with the hydroxyguanidine was formed”.
With `CCNC(=NO)N(C)Cc1ccccc1` [Example 5, 1-Benzyl-1-methyl-3-ethyl-2-hydroxyguanidine] the ED50 [2] was 19 mg/kg.
